The values below come from patent US12281149B2, “Modulators of G-protein coupled receptors” (priority 2021, dated 2025).

What all share (format): cell-based
For experiment [1], the target named is T1, GLP-1 receptor (Homo sapiens, UniProt P43220). The experiment in a line: PathHunter β-arrestin assay, GLP-1 receptor. The arrangement: host or cells: PathHunter CHO-K1 GLP1R β-Arrestin Cell Line. As to conditions: β-arrestin-2 recruitment, PathHunter CHO-K1 GLP1R β-Arrestin Cell Line, 90 min at 37° C.; normalized to GLP-1; read-out: GLP-1R β Arrestin EC50.

The target of experiment [2] is T1, GLP-1 receptor. The experiment in a line: HitHunter cAMP assay, GLP-1 receptor. As to conditions: for EC50: CHO cells stably expressing human GLP-1 receptor, cAMP accumulation, 30 min, read-out: EC50 GLP-1R; for Emax: CHO cells, cAMP, normalized to maximum signal from GLP-1 (high) and DMSO (low), read-out: Emax GLP-1R. Background: Cyclic AMP is a second messenger, typically raised through Gs and lowered through Gi signalling.

Experiment [3] deals with T2, GIP receptor (Homo sapiens, UniProt P48546).
T2 sequence (P48546 22-466): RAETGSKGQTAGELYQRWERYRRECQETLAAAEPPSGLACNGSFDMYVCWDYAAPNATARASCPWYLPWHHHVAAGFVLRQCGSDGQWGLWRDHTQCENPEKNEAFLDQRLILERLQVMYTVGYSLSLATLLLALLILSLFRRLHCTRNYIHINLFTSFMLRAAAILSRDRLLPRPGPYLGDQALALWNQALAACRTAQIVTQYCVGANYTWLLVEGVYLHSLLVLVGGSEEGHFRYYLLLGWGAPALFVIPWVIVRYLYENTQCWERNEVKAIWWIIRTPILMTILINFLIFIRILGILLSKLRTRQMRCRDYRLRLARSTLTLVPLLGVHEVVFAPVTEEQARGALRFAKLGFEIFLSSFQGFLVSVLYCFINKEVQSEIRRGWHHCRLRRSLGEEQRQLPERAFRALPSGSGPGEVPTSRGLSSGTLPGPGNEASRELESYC
The experiment in a line: HitHunter cAMP assay, GIP receptor. To be noted: for EC50: CHO cells stably expressing GIP receptor, cAMP accumulation, 30 min, read-out: EC50 GIP-1R; for Emax: CHO cells, cAMP, normalized to maximum signal from GIP (high) and DMSO (low), read-out: Emax GIP-1R.

Experiment [4] has as its target T2, GIP receptor. As to the kind of experiment: PathHunter β-arrestin assay, GIP receptor. As to conditions: β-arrestin-2 recruitment, PathHunter CHO-K1 GIPR β-Arrestin Cell Line, 90 min at 37° C.; normalized to GIP; read-out: GIPR β Arrestin EC50. Further details: host or cells: PathHunter CHO-K1 GIPR β-Arrestin Cell Line. In general terms: Arrestin recruitment assays detect the binding of arrestin to an activated receptor.

*1 amine or outer side, *2 acyl side, *3 side chain or, on linkers, in order; H or OH if unused. Where a SMILES comes first, the peptide text is derived from it. Side-chain parts run from the residue outwards. [ ]: non-standard residue; d: D form. The star is where a group is joined. Isobutyryl(2-(3-CN-5-F-Ph)) = CC(C)(C(=O)*)c1cc(F)cc(C#N)c1; C20 diacid = O=C(O)CCCCCCCCCCCCCCCCCCC(=O)*; γGlu = O=C(O)[C@H](CCC(=O)[*:2])N[*:1]; X43 = O=C1CCC(C(=O)*)(c2ccccc2)CN1; X51 = COc1cccc(C2(C(=O)*)CCCC2)c1; AEEA = NCCOCCOCC(=O)O; Aib = CC(C)(N)C(=O)O; GABA = NCCCC(=O)O; βAla = NCCC(=O)O Where only a bound is given, the exact number is not on record here.

T1 sequence (P43220 24-463): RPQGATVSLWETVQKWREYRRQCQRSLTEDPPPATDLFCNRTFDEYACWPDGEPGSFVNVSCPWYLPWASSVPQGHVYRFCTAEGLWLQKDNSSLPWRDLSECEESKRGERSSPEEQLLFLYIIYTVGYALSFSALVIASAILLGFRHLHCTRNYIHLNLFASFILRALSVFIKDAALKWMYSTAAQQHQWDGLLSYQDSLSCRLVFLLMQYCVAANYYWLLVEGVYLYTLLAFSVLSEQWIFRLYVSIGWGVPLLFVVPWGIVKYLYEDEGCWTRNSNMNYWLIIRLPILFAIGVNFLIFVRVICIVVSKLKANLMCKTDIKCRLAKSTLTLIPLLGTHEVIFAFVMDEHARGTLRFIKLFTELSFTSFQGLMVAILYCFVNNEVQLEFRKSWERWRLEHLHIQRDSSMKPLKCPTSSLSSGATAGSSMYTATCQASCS

With `CC[C@H](C)[C@H](NC(=O)[C@H](CO)NC(=O)[C@H](CCCCNC(=O)COCCOCCNC(=O)COCCOCCNC(=O)CC[C@H](NC(=O)CCCCCCCCCCCCCCCCCCC(=O)O)C(=O)O)NC(=O)[C@H](CC(=O)O)NC(=O)[C@H](CO)NC(=O)[C@@H](NC(=O)[C@H](Cc1ccccc1)NC(=O)[C@@H](NC(=O)CNC(=O)[C@H](CCC(=O)O)NC(=O)CCNC(=O)C1(c2ccccc2)CCC(=O)NC1)[C@@H](C)O)[C@@H](C)O)C(=O)N[C@@H](Cc1ccc(O)cc1)C(=O)N[C@@H](CC(C)C)C(=O)N[C@@H](CC(=O)O)C(=O)N[C@@H](CCCCN)C(=O)N[C@@H](CCC(N)=O)C(=O)N[C@@H](C)C(=O)N[C@@H](C)C(=O)NC(C)(C)C(=O)N[C@@H](CCC(=O)O)C(=O)N[C@@H](Cc1ccccc1)C(=O)N[C@H](C(=O)N[C@@H](CC(N)=O)C(=O)N[C@@H](Cc1c[nH]c2ccccc12)C(=O)N[C@@H](CC(C)C)C(=O)N[C@@H](CC(C)C)C(=O)N[C@@H](C)C(=O)NCC(=O)NCC(=O)N1CCC[C@H]1C(=O)N[C@@H](CO)C(=O)N[C@@H](CO)C(=O)NCC(=O)N[C@@H](C)C(=O)N1CCC[C@H]1C(=O)N1CCC[C@H]1C(=O)N1CCC[C@H]1C(=O)N[C@@H](CO)C(N)=O)C(C)C` (stereo partly drawn) [Compound 153] ({X43-βAla}-EGTFTSDK([AEEA-AEEA-γGlu-C20 diacid])SIYLDKQAA[Aib]EFVNWLLAGGPSSGAPPPS-NH2), the EC50 (usually the midpoint of the concentration-response curve) was greater than 1000 nM in experiment [1], 0.1 to 1 nM in experiment [2], 1 to 10 nM in experiment [3] and greater than 1000 nM in experiment [4]. Besides, the maximal response (Emax) (commonly the greatest response seen or fitted, relative to the assay's reference) came out at 101% in experiment [2] and 105% in experiment [3].

For the molecule `CC[C@H](C)[C@H](NC(=O)[C@H](CO)NC(=O)[C@H](CCCCNC(=O)COCCOCCNC(=O)COCCOCCNC(=O)CC[C@H](NC(=O)CCCCCCCCCCCCCCCCCCC(=O)O)C(=O)O)NC(=O)[C@H](CC(=O)O)NC(=O)[C@H](CO)NC(=O)[C@@H](NC(=O)[C@H](Cc1ccccc1)NC(=O)[C@@H](NC(=O)CNC(=O)[C@H](CCC(=O)O)NC(=O)CCNC(=O)[C@@]1(c2ccccc2)CNC(=O)C1)[C@@H](C)O)[C@@H](C)O)C(=O)N[C@@H](Cc1ccc(O)cc1)C(=O)N[C@@H](CC(C)C)C(=O)N[C@@H](CC(=O)O)C(=O)N[C@@H](CCCCN)C(=O)N[C@@H](CCC(N)=O)C(=O)N[C@@H](C)C(=O)N[C@@H](C)C(=O)NC(C)(C)C(=O)N[C@@H](CCC(=O)O)C(=O)N[C@@H](Cc1ccccc1)C(=O)N[C@H](C(=O)N[C@@H](CC(N)=O)C(=O)N[C@@H](Cc1c[nH]c2ccccc12)C(=O)N[C@@H](CC(C)C)C(=O)N[C@@H](CC(C)C)C(=O)N[C@@H](C)C(=O)NCC(=O)NCC(=O)N1CCC[C@H]1C(=O)N[C@@H](CO)C(=O)N[C@@H](CO)C(=O)NCC(=O)N[C@@H](C)C(=O)N1CCC[C@H]1C(=O)N1CCC[C@H]1C(=O)N1CCC[C@H]1C(=O)N[C@@H](CO)C(N)=O)C(C)C` (single isomer, unassigned) [Compound 123], the concentration for a half-maximal effect (EC50) in experiment [1] is greater than 1000 nM; in experiment [2], 10 to 100 nM; in experiment [3] it was 10 to 100 nM; in experiment [4] it was greater than 1000 nM. Also, the Emax was determined as 95% in experiment [2] and 103% in experiment [3].

For the molecule `CC[C@H](C)[C@H](NC(=O)[C@H](CCCCN)NC(=O)[C@H](CC(=O)O)NC(=O)[C@H](CC(C)C)NC(=O)[C@H](Cc1ccc(O)cc1)NC(=O)[C@@H](NC(=O)[C@H](CO)NC(=O)[C@H](Cc1ccc(O)cc1)NC(=O)[C@H](CC(=O)O)NC(=O)[C@H](CO)NC(=O)[C@@H](NC(=O)[C@H](Cc1ccccc1)NC(=O)[C@@H](NC(=O)CNC(=O)[C@H](CCC(=O)O)NC(=O)CCNC(=O)C(C)(C)c1cc(F)cc(C#N)c1)[C@@H](C)O)[C@@H](C)O)[C@@H](C)CC)C(=O)N[C@@H](C)C(=O)N[C@@H](CCC(N)=O)C(=O)N[C@@H](CCCCNC(=O)COCCOCCNC(=O)COCCOCCNC(=O)CC[C@H](NC(=O)CCCCCCCCCCCCCCCCCCC(=O)O)C(=O)O)C(=O)N[C@@H](C)C(=O)N[C@@H](Cc1ccccc1)C(=O)N[C@H](C(=O)N[C@@H](CCC(N)=O)C(=O)N[C@@H](Cc1c[nH]c2ccccc12)C(=O)N[C@@H](CC(C)C)C(=O)N[C@H](C(=O)N[C@@H](C)C(=O)NCC(=O)NCC(=O)N1CCC[C@H]1C(=O)N[C@@H](CO)C(=O)N[C@@H](CO)C(=O)NCC(=O)N[C@@H](C)C(=O)N1CCC[C@H]1C(=O)N1CCC[C@H]1C(=O)N1CCC[C@H]1C(=O)N[C@@H](CO)C(N)=O)[C@@H](C)CC)C(C)C` [Compound 189] ({Isobutyryl(2-(3-CN-5-F-Ph))-βAla}-EGTFTSDYSIYLDKIAQK([AEEA-AEEA-γGlu-C20 diacid])AFVQWLIAGGPSSGAPPPS-NH2), the EC50 in experiment [1] was greater than 1000 nM; in experiment [2], 0.1 to 1 nM; in experiment [3], 10 to 100 nM; in experiment [4] it was greater than 1000 nM. For the same molecule, the maximal effect (Emax) was 95% in experiment [2] and 93% in experiment [3].

With `CC[C@H](C)[C@H](NC(=O)[C@H](CC(C)C)NC(=O)[C@H](Cc1c[nH]c2ccccc12)NC(=O)[C@H](CCC(N)=O)NC(=O)[C@@H](NC(=O)[C@H](Cc1ccccc1)NC(=O)[C@H](C)NC(=O)[C@H](CCCCNC(=O)COCCOCCNC(=O)COCCOCCNC(=O)CC[C@H](NC(=O)CCCCCCCCCCCCCCCCCCC(=O)O)C(=O)O)NC(=O)[C@H](CCC(N)=O)NC(=O)[C@H](C)NC(=O)[C@@H](NC(=O)[C@H](CCCCN)NC(=O)[C@H](CC(=O)O)NC(=O)[C@H](CC(C)C)NC(=O)C(C)(C)NC(=O)[C@@H](NC(=O)[C@H](CO)NC(=O)[C@H](Cc1ccc(O)cc1)NC(=O)[C@H](CC(=O)O)NC(=O)[C@H](CO)NC(=O)[C@@H](NC(=O)[C@H](Cc1ccccc1)NC(=O)[C@@H](NC(=O)CNC(=O)[C@H](CCC(=O)O)NC(=O)CCCNC(=O)C(C)(C)c1cc(F)cc(C#N)c1)[C@@H](C)O)[C@@H](C)O)[C@@H](C)CC)[C@@H](C)CC)C(C)C)C(=O)N[C@@H](C)C(=O)NCC(=O)NCC(=O)N1CCC[C@H]1C(=O)N[C@@H](CO)C(=O)N[C@@H](CO)C(=O)NCC(=O)N[C@@H](C)C(=O)N1CCC[C@H]1C(=O)N1CCC[C@H]1C(=O)N1CCC[C@H]1C(=O)N[C@@H](CO)C(N)=O` [Compound 200] ({Isobutyryl(2-(3-CN-5-F-Ph))-GABA}-EGTFTSDYSI[Aib]LDKIAQK([AEEA-AEEA-γGlu-C20 diacid])AFVQWLIAGGPSSGAPPPS-NH2), the EC50 in experiment [1] was greater than 1000 nM; in experiment [2], 0.1 to 1 nM; in experiment [3] it was 10 to 100 nM; in experiment [4] it was greater than 1000 nM. Further, the results for the maximum response (Emax) in experiment [2] and in experiment [3] were 104% and 102%, respectively.

As to `CC[C@H](C)[C@H](NC(=O)[C@H](CC(C)C)NC(=O)[C@H](Cc1c[nH]c2ccccc12)NC(=O)[C@H](CCC(N)=O)NC(=O)[C@@H](NC(=O)[C@H](Cc1ccccc1)NC(=O)[C@H](C)NC(=O)[C@H](CCCCNC(=O)COCCOCCNC(=O)COCCOCCNC(=O)CC[C@H](NC(=O)CCCCCCCCCCCCCCCCCCC(=O)O)C(=O)O)NC(=O)[C@H](CCC(N)=O)NC(=O)[C@H](C)NC(=O)[C@@H](NC(=O)[C@H](CCCCN)NC(=O)[C@H](CC(=O)O)NC(=O)[C@H](CC(C)C)NC(=O)C(C)(C)NC(=O)[C@@H](NC(=O)[C@H](CO)NC(=O)[C@H](Cc1ccc(O)cc1)NC(=O)[C@H](CC(=O)O)NC(=O)[C@H](CO)NC(=O)[C@@H](NC(=O)[C@H](Cc1ccccc1)NC(=O)[C@@H](NC(=O)CNC(=O)[C@H](CCC(=O)O)NC(=O)CCNC(=O)C1(c2cccc(OC)c2)CCCC1)[C@@H](C)O)[C@@H](C)O)[C@@H](C)CC)[C@@H](C)CC)C(C)C)C(=O)N[C@@H](C)C(=O)NCC(=O)NCC(=O)N1CCC[C@H]1C(=O)N[C@@H](CO)C(=O)N[C@@H](CO)C(=O)NCC(=O)N[C@@H](C)C(=O)N1CCC[C@H]1C(=O)N1CCC[C@H]1C(=O)N1CCC[C@H]1C(=O)N[C@@H](CO)C(N)=O` [Compound 207] ({X51-βAla}-EGTFTSDYSI[Aib]LDKIAQK([AEEA-AEEA-γGlu-C20 diacid])AFVQWLIAGGPSSGAPPPS-NH2), the concentration giving a half-maximal response (EC50) in experiment [1] is greater than 1000 nM; in experiment [2], 1 to 10 nM; in experiment [3], 1 to 10 nM; in experiment [4], greater than 1000 nM. Besides, the maximum response (Emax) was found to be 97% in experiment [2] and 109% in experiment [3].
